Source: patent US20030044413A1, “Methods of limiting apoptosis of cells” (Regents of the University of Minnesota, priority 1998, published 2003)
Several values for one entry are separate records, joined by “and”; a condition that tells them apart may be missing. Identical values can stand only once. Entries after “also recorded” stand apart in the source; their conditions may differ.

Tests used:
[1] = test system: isolated rat liver mitochondria; assay: MPT spectrophotometric assay (mitochondrial swelling); conditions: for effect on DCA-induced MPT / mitochondrial swelling: preincubation (500 μM bile acid or cyclosporine A) before DCA; for mitochondrial swelling with the substance alone: substance alone added to isolated mitochondria
Protocol: Isolation of mitochondria and MPT assays. Low calcium liver mitochondria were isolated from male 200-250 g Sprague-Dawley rats by density gradient centrifugation as previously published (Botla et al., J. Pharmacol. Exp. Ther., 272, 930-938 (1995); Walajtys-Rhode et al., J. Biol. Chem., 267, 370-379 (1992); and Sokol et al., Gastroenterology, 99, 1061-1071 (1990)). The mitochondrial fraction was resuspended in 30 ml of wash buffer containing 0.1 M KCl, 5 mM 3-(N-morpholino)-propane sulfonic acid (MOPS), and 1 mM EGTA, at pH 7.4 and centrifuged at 7,000×g for 10 min at 4° C. A final wash was carried out in chelex-100-treated buffer (Bio-Rad Laboratories, Hercules, Calif.) containing no EGTA. The resulting pellet was suspended in 4 ml of chelex--100-treated buffer containing 125 mM sucrose, 5 mM HEPES, 50 mM KCl and 2 mM KH2PO4. The usual yield of mitochondria was approximately 25 mg of protein per gram of liver tissue. Mitochondrial purity was established as previously described (Botla et al., J. Pharmacol. Exp. Ther., 272, 930-938 (1995)). Protein concentrations were determined using the Bio-Rad protein assay kit as specified by the manufacturer.
MPT was measured spectrophotometrically as described previously (Botla et al., J. Pharmacol. Exp. Ther., 272, 930-938 (1995); Pastorino et al., J. Biol. Chem., 268, 13791-13798 (1993)), during 10 min incubations at 25° C. using mitochondria (1 mg of protein/ml) suspended in 3 ml of a chelex-100-treated buffer containing 0.1 M NaCl, 10 mM MOPS, pH 7.4. Swelling was monitored at 540 nm in a Beckman DU 64 spectrophotometer. Basal values of mitochondria absorbance were measured for 5 min, and the optical density was monitored another 5 min after addition of 200 μM DCA or 80 μM phenylarsine oxide (PhAsO; Sigma Chemical Co.). For coincubation studies, mitochondria were preincubated with 500 μM UDCA or hyodeoxycholic acid for 5 min at 25° C. prior to the assay.
Spectrophotometric and Fluorimetric Assays of MPT. The MPT was assessed using a spectrophotometric assay measuring high amplitude rapid changes in mitochondrial volume, and a fluorimetric assay quantitating the release of calcein from calcein-loaded mitochondria. The MPT was measured spectrophotometrically as previously described (Pastorino, J. Biol. Chem., 268, 13791-13798 (1993); Botla et al., J. Pharmacol. Exp. Ther., 272, 930-938 (1995)). Briefly, mitochondria (3 mg protein) were incubated in 3 ml of chelex-100-treated respiration buffer (0.1 M NaCl, 10 mM MOPS, pH 7.4) for 10 min at 25° C. and monitored at 540 nm in a Beckman DU 64 spectrophotometer. Basal values of mitochondrial absorbance were measured for 5 min, and the optical density was monitored for an additional 5 min after addition of increasing concentrations of DCA (50-200 μM) or 80 μM phenylarsine oxide (PhAsO; Sigma Chemical Co., St. Louis, Mo.). For the coincubation studies, mitochondria were preincubated with UDCA (100-500 μM), or 500 μM hyodeoxycholic acid (HDCA; Sigma Chemical Co.) for 5 min at 25° C. prior to initiation of the assay.
Measurement of MPT and determination of cytochrome c content in supernatants and mitochondrial pellets after MPT. The MPT was assessed using a spectrophotometric assay measuring high amplitude rapid changes in mitochondria volume. Mitochondria (1 mg protein) were incubated in 1 ml of chelex-100-treated respiration buffer (0.1 M NaCl, 10 mM MOPS, pH 7.4) for 10 min at 25° C. and swelling was monitored at 540 nm in a Beckman DU 64 spectrophotometer. Malate and glutamate (1 mM) were added to initiate respiration, and 3 min later rotenone (5 μM), an inhibitor of complex I of the respiratory chain, was also added to the supension. Basal values of mitochondria absorbance were measured for 5 min, and the optical density was monitored for an additional 5 min after addition 200 μM DCA or 80 μM phenylarsine oxide (PhAsO; Sigma Chemical Co.). […]

[2] = test system: HuH-7 cells; assay: TGF-β1-induced apoptosis, Hoechst staining, HuH-7 cells; type: cell-based, human
Protocol: Incubation of cells with ethanol, TGF-β1, anti-Fas antibody or okadaic acid. Freshly isolated rat hepatocytes were cultured for 3 h as described above and then incubated with William's E medium supplemented with either 0.5% ethanol, 50 μM UDCA, ethanol plus UDCA, or no addition (control) for 2 h and 4 h. HuH-7 cells were incubated with Dulbecco's medium supplemented with either 1 nM TGF-β1 (R & D Systems, Minneapolis, Minn.), 100 μM UDCA, TGF-β1+UDCA, or no addition (control) for 24 h, 48 h, and 72 h. Hep G2 cells were incubated with Dulbecco's medium supplemented with either 0.5 μg/ml of anti-Fas antibody CH-11 (Upstate Biotechnology, Inc., Lake Placid, N.Y.), 100 μM UDCA, CH-11+UDCA, or no addition for 48 h. Both HuH-7 cells and human osteogenic sarcoma Saos-2 cells were cultured in Dulbecco's medium supplemented with either 50 nM okadaic acid (Boehringer Mannheim Biochemicals, Inc, Indianapolis, Ind.), 100 μM UDCA, okadaic acid+UDCA, or no addition for 48 h. In all the combination groups, cells were pretreated with UDCA alone for 60 min prior to addition of ethanol, TGF-β1, anti-Fas antibody or okadaic acid.
HuH-7 cells were treated with 1 nM TGF-β1, 100 μM of either hyodeoxycholic acid, taurocholic acid, tauroursodeoxycholic acid (Sigma Chemical Co.) or glycoursodeoxycholic acid (Steraloids Inc., Wilton, N.H.), or a combination of TGF-β1 plus the individual bile acids for 72 h. HeLa and Cos-7 cells were incubated with 50 nM okadaic acid, 100 μM of either tauroursodeoxycholic acid or glycoursodeoxycholic acid, or a combination of okadaic acid plus the individual bile acids for 24 h. In the combination groups, cells were pretreated with the bile acid alone for 60 min prior to incuation with TGF-β1 or okadaic acid. In all studies, the medium was gently removed at the indicated times and scored for nonviable cells. The attached cells were fixed for morphologic evaluation of apoptosis.
Morphological evaluation of apoptosis. […] Fluorescence was visualized with a Zeiss standard fluorescence microscope (Carl Zeiss, Inc., Thornwood, N.Y.). Photographs were taken with Kodak Ektar-1000 film (Eastman Kodak Co.). Stained nuclei were scored by blind analysis and categorized according to the condensation and staining characteristics of chromatin. Normal nuclei were identified as noncondensed chromatin dispersed over the entire nucleus. Apoptotic nuclei were identified by condensed chromatin, contiguous to the nuclear membrane, as well as nuclear fragmentation of condensed chromatin. Three fields per dish of approximately 500 nuclei were counted; mean values are expressed as the percent of apoptotic nuclei.

[3] = 1 nM TGF-β1, 100 μM bile acid, 72 h

C[C@H](CCC(=O)O)[C@H]1CC[C@H]2[C@@H]3CC[C@@H]4C[C@H](O)CC[C@]4(C)[C@H]3C[C@H](O)[C@]12C [DCA, deoxycholic acid]
concentration at which high amplitude mitochondrial swelling was detected (as low as) [1]: 50 µM
MPT, increase over control ([1]; 50 μM DCA): 4 fold

C[C@H](CCC(=O)O)[C@H]1CC[C@H]2[C@@H]3[C@@H](O)C[C@@H]4C[C@H](O)CC[C@]4(C)[C@H]3CC[C@]12C [UDCA, ursodeoxycholic acid]
swelling ([1]; 100 μM UDCA 5 min before 200 μM DCA): 26.8±6.3%
inhibition of DCA-induced MPT (mitochondrial swelling) ([1]; 200 μM DCA, pretreatment 500 μM UDCA or 5 μM cyclosporine A): > 40% and 43.1±1.6%
swelling ([1]; 500 μM UDCA 5 min before 200 μM DCA): 16.9±2.3%
decrease of TGF-β1 apoptosis ([2]; 1 nM TGF-β1, 100 μM bile acid, 24 h): approximately 49%
decrease of TGF-β1 apoptosis ([2]; 1 nM TGF-β1, 100 μM bile acid, 48 h): ~44%
decrease of TGF-β1 apoptosis [2, 3]: ~45%
Inhibition % Apoptosis ([2]; inducer TGF-β1, HuH-7, inhibition by UDCA): 44.2 ± 11.2%

C[C@H](CCC(=O)O)[C@H]1CC[C@H]2[C@@H]3C[C@H](O)[C@@H]4C[C@H](O)CC[C@]4(C)[C@H]3CC[C@]12C [hyodeoxycholic acid]
effect on DCA-induced MPT / mitochondrial swelling [1]: nor did it have a protective effect
effect on DCA-induced MPT / mitochondrial swelling ([1]; listed as HDCA): did not decrease DCA-induced mitochondrial swelling
mitochondrial swelling with the substance alone [1]: No significant mitochondrial swelling
inhibition of TGF-β1-induced apoptosis [2, 3]: did not; also recorded: neither hyodeoxycholic acid nor taurocholic acid showed inhibition

C=C1[C@@H](O)[C@@H]2O[C@]3(CC[C@H](/C=C/[C@@H](C)[C@@H]4CC(C)=C[C@@]5(O[C@H](C[C@@](C)(O)C(=O)O)CC[C@H]5O)O4)O3)CC[C@H]2O[C@@H]1[C@@H](O)C[C@H](C)[C@H]1O[C@@]2(CCCCO2)CC[C@H]1C [okadaic acid]
mitochondrial swelling with the substance alone [1]: did not induce mitochondria swelling

TGF-β1: transforming growth factor β1, nonmembrane damaging inducer of apoptosis
mitochondrial swelling with the substance alone [1]: did not induce mitochondria swelling
induction of apoptosis ([2]; 1 nM TGF-β1): significant apoptosis
